Experimental data: patent US11414424B2, “Cardiac sarcomere inhibitors” (Cytokinetics, Inc., priority 2018, dated 2022)

Tested on: bovine cardiac myofibrils
Assay: Myofibril assay: PK/LDH-coupled steady-state ATPase activity of skinned bovine cardiac myofibrils
Type: biochemical
Settings: Ca2+ activating to 75% of maximal rate
How it was run: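 Steady-state ATPase of detergent-skinned bovine left-ventricular myofibrils (1 mg/mL), PK/LDH-coupled NADH read at 340 nm, in PIPES/MgCl2 buffer pH 6.8 with 50 μM ATP, 0.6 mM EGTA and CaCl2 set for 50% or 75% activation. Inhibition of activity measured.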

| Structure (SMILES) | CDMF75 IC15 |
| --- | --- |
| CNC(=O)N1CC2(C1)C(=O)N(C(C)C)CC(=O)N2Cc1ccc(Cl)cc1 [Compound 65, 5-(4-chlorobenzyl)-8-isopropyl-N-methyl-6,9-dioxo-2,5,8-triazaspiro[3.5]nonane-2-carboxamide] | 9.8 µM |
| CC(C)N1CC(=O)N(Cc2ccc(Cl)cc2)C2(CN(C(=O)Nc3cnn(C)c3)C2)C1=O [Compound 66, 5-(4-chlorobenzyl)-8-isopropyl-N-(1-methyl-1H-pyrazol-4-yl)-6,9-dioxo-2,5,8-triazaspiro[3.5]-nonane-2-carboxamide] | 17.6 µM |
| CNC(=O)N1CC2(C1)C(=O)N(C(C)C)CC(=O)N2Cc1ccc(C(F)(F)F)cc1 [Compound 67, 8-isopropyl-N-methyl-6,9-dioxo-5-(4-(trifluoromethyl)benzyl)-2,5,8-triazaspiro[3.5]-nonane-2-carboxamide] | 6.0 µM |
| CC(C)N1CC(=O)N(Cc2ccc(C(F)(F)F)cc2)C2(CN(C(N)=O)C2)C1=O [Compound 68, 8-isopropyl-6,9-dioxo-5-(4-(trifluoromethyl)benzyl)-2,5,8-triazaspiro[3.5]-nonane-2-carboxamide] | 9.2 µM |
| CC(C)N1CC(=O)N(Cc2ccc(C(F)(F)F)cc2)C2(CCN(c3cccnn3)C2)C1=O (stereo not shown) [Compound 73, 9-isopropyl-2-(pyridazin-3-yl)-6-(4-(trifluoromethyl)benzyl)-2,6,9-triazaspiro[4.5]-decane-7,10-dione] | 5.7 µM |
| Cc1ccc(N2CCC3(C2)C(=O)N(C(C)C)CC(=O)N3Cc2ccc(Cl)cc2)nc1 (stereo not shown) [Compound 75, 6-(4-chlorobenzyl)-9-isopropyl-2-(5-methylpyridin-2-yl)-2,6,9-triazaspiro[4.5]-decane-7,10-dione] | 1.1 µM |
| Cc1cc(N2CCC3(C2)C(=O)N(C(C)C)CC(=O)N3Cc2ccc(C(F)(F)F)cc2)cc(C)n1 (stereo not shown) [Compound 77, 2-(2,6-dimethylpyridin-4-yl)-9-isopropyl-6-(4-(trifluoromethyl)benzyl)-2,6,9-triazaspiro[4.5]-decane-7,10-dione] | 13.0 µM |
| CC(C)N1CC(=O)N(Cc2ccc(Cl)cc2)C2(CCN(c3cnn(C)c3)C2)C1=O (stereo not shown) [Compound 78, 6-(4-chlorobenzyl)-9-isopropyl-2-(1-methyl-1H-pyrazol-4-yl)-2,6,9-triazaspiro[4.5]decane-7,10-dione] | 4.1 µM |
| CC(C)N1CC(=O)N(Cc2ccc(Cl)cc2)C2(CCN(c3ccn(C)c(=O)c3)C2)C1=O (stereo not shown) [Compound 80, 6-(4-chlorobenzyl)-9-isopropyl-2-(1-methyl-2-oxo-1,2-dihydropyridin-4-yl)-2,6,9-triazaspiro-[4.5]decane-7,10-dione] | 1.7 µM |
| CC(C)N1CC(=O)N(Cc2ccc(Cl)cc2)C2(CCN(c3cc[nH]c(=O)c3)C2)C1=O (stereo not shown) [Compound 81, 6-(4-chlorobenzyl)-9-isopropyl-2-(2-oxo-1,2-dihydropyridin-4-yl)-2,6,9-triazaspiro[4.5]decane-7,10-dione] | 1.4 µM |
| CCN1CC(=O)N(Cc2ccc(Cl)cc2)C2(CCN(c3ccccn3)C2)C1=O (stereo not shown) [Compound 82, 6-(4-chlorobenzyl)-9-ethyl-2-(pyridin-2-yl)-2,6,9-triazaspiro[4.5]decane-7,10-dione] | 8.1 µM |
| O=C1CN(C2CCCC2)C(=O)C2(CCN(c3ccccn3)C2)N1Cc1ccc(Cl)cc1 (stereo not shown) [Compound 83, 6-(4-chlorobenzyl)-9-cyclopentyl-2-(pyridin-2-yl)-2,6,9-triazaspiro[4.5]-decane-7,10-dione] | 1.3 µM |
| COc1cc(N2CCC3(C2)C(=O)N(C(C)C)CC(=O)N3Cc2ccc(Cl)cc2)ccn1 (stereo not shown) [Compound 87, 6-(4-chlorobenzyl)-9-isopropyl-2-(2-methoxypyridin-4-yl)-2,6,9-triazaspiro[4.5]-decane-7,10-dione] | 1.9 µM |
| CC(C)N1CC(=O)N(Cc2ccc(C(F)(F)F)cc2)C2(CCN(c3cc(C#N)ccn3)C2)C1=O (stereo not shown) [Compound 88, 2-(9-isopropyl-7,10-dioxo-6-(4-(trifluoromethyl)-benzyl)-2,6,9-triazaspiro[4.5]decan-2-yl)isonicotinonitrile] | 4.0 µM |

Results, then the molecule that gave them:

| CDMF75 IC15 | Structure (SMILES) |
| --- | --- |
| 15.4 µM | CC(C)N1CC(=O)N(Cc2ccc(C(F)(F)F)cc2)C2(CN(C=O)C2)C1=O [Compound 69, 8-isopropyl-6,9-dioxo-5-(4-(trifluoromethyl)benzyl)-2,5,8-triazaspiro[3.5]-nonane-2-carbaldehyde] |
| 9.5 µM | CNC(=O)N1CC2(C1)C(=O)N(C1CCCC1)CC(=O)N2Cc1ccc(C(F)(F)F)cc1 [Compound 70, 8-cyclopentyl-N-methyl-6,9-dioxo-5-(4-(trifluoromethyl)benzyl)-2,5,8-triazaspiro[3.5]-nonane-2-carboxamide] |
| 4.8 µM | CC(C)N1CC(=O)N(Cc2ccc(Cl)cc2)C2(CCN(c3ccncn3)C2)C1=O (stereo not shown) [Compound 71, 6-(4-chlorobenzyl)-9-isopropyl-2-(pyrimidin-4-yl)-2,6,9-triazaspiro-[4.5]decane-7,10-dione] |
| 9.0 µM | Cc1cc(N2CCC3(C2)C(=O)N(C(C)C)CC(=O)N3Cc2ccc(C(F)(F)F)cc2)ccn1 (stereo not shown) [Compound 72, 9-isopropyl-2-(2-methylpyridin-4-yl)-6-(4-(trifluoromethyl)benzyl)-2,6,9-triazaspiro[4.5]-decane-7,10-dione] |
| 4.2 µM | CC(C)N1CC(=O)N(Cc2ccc(Cl)cc2)C2(CCN(c3cnccn3)C2)C1=O (stereo not shown) [Compound 74, 6-(4-chlorobenzyl)-9-isopropyl-2-(pyrazin-2-yl)-2,6,9-triazaspiro[4.5]-decane-7,10-dione] |
| 2.2 µM | CC(C)N1CC(=O)N(Cc2ccc(C(F)(F)F)cc2)C2(CCN(c3cc[nH]c(=O)c3)C2)C1=O (stereo not shown) [Compound 76, 9-isopropyl-2-(2-oxo-1,2-dihydropyridin-4-yl)-6-(4-(trifluoromethyl)benzyl)-2,6,9-triazaspiro[4.5]decane-7,10-dione] |
| 3.8 µM | CC(C)N1CC(=O)N(Cc2ccc(Cl)cc2)C2(CCN(c3cccnn3)C2)C1=O (stereo not shown) [Compound 79, 6-(4-chlorobenzyl)-9-isopropyl-2-(pyridazin-3-yl)-2,6,9-triazaspiro[4.5]-decane-7,10-dione] |
| 4.0 µM | CC(C)CN1CC(=O)N(Cc2ccc(Cl)cc2)C2(CCN(c3ccccn3)C2)C1=O (stereo not shown) [Compound 84, 6-(4-chlorobenzyl)-9-isobutyl-2-(pyridin-2-yl)-2,6,9-triazaspiro[4.5]-decane-7,10-dione] |
| 14.3 µM | CC1(N2CC(=O)N(Cc3ccc(Cl)cc3)C3(CCN(c4ccccn4)C3)C2=O)CC1 (stereo not shown) [Compound 85, 6-(4-chlorobenzyl)-9-(1-methylcyclopropyl)-2-(pyridin-2-yl)-2,6,9-triazaspiro[4.5]decane-7,10-dione] |
| 8.6 µM | COCC(C)N1CC(=O)N(Cc2ccc(Cl)cc2)C2(CCN(c3ccccn3)C2)C1=O (stereo not shown) [Compound 86, 6-(4-chlorobenzyl)-9-(1-methoxypropan-2-yl)-2-(pyridin-2-yl)-2,6,9-triazaspiro[4.5]decane-7,10-dione] |
| 3.3 µM | CC(C)N1CC(=O)N(Cc2ccc(C(F)(F)F)cc2)C2(CCN(c3cc(C(N)=O)ccn3)C2)C1=O (stereo not shown) [Compound 89, 2-(9-isopropyl-7,10-dioxo-6-(4-(trifluoromethyl)-benzyl)-2,6,9-triazaspiro[4.5]decan-2-yl)isonicotinamide] |
